From patent US20260217698A1 (BEYANG THERAPEUTICS CO., LTD., priority 2022, published 2026)
In brackets after ≈: the same amount, converted by molar mass.

What was measured:
[1] = target: T1, EGFR (Homo sapiens, UniProt P00533); experiment: Kinase inhibition, Mobility Shift Assay/IMAP, EGFR; assay type: biochemical
T1 construct: purchased Carna 08-115
Procedure, shortened: (§1)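 Substrate conversion (phosphorylated vs non-phosphorylated) read by mobility shift on Caliper EZ Reader II and converted to % inhibition relative to no-enzyme and DMSO controls. IC50 fitted from % inhibition versus log compound concentration.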

[2] = test system: HUVEC cells; experiment: Inhibition of VEGF-induced HUVEC cell proliferation, CellTiter Glo; assay type: cell-based; details: Homo sapiens, 20 ng/ml VEGF, 72 hours
From the text: In this experiment, human umbilical vein endothelial cells (HUVEC, Lonza) were used. HUVEC cells are primary cells isolated from umbilical veins. This cell line is a model system to study the functions of endothelial cells. Endothelial cell proliferation in response to VEGF is crucial to the pathological angiogenesis associated with conditions such as tumor development and ocular neovascular diseases.
In this assay, a luciferase bioluminescence assay (CellTiter GLU™, Promega) is used to determine the inhibitory activity of the compounds against VEGF-induced HUVEC cell proliferation and viability. CellTiter GLO™ is a homogeneous method for quantifying the count of viable cells in culture based on ATP, an indicator of metabolically active cells. In this assay, the compound was incubated with HUVEC cells for 72 hours, and then the inhibitory activity of the resulting compound against VEGF-induced HUVEC cell proliferation was measured on the En Vision plate reader.
With the RPMI-1640 medium (plus 5% FBS, 1% Penicillin-Streptomycin) used for the HUVEC cell proliferation experiment, add a cell suspension to a 96-well plate at 100 μl per well, i.e., 4000 HUVEC cells/well, and incubate them overnight in a 5% CO2 incubator at 37° C. (serum starvation). After 24 hours, add 96 μl of the experimental medium to the cell wells, and then add 2 μl of the compound to the cell wells; and after 1 hour following the addition of the compound, add 2 μl of 2 μg/ml VEGF to the cell wells. Add 0.1% DMSO and 20 ng/ml VEGF to cell wells to serve as high-reading control wells. Take cell-free wells with only medium as low-reading control wells. […] After 72 hours of incubation of the cell plate in the incubator, hold the cell plate to be tested at room temperature and discard 100 μl of medium per well. Add 100 μl of CTG reagent (CellTiter Glo kit) per well, oscillate the cell plate in a fast oscillator for 3 minutes, and keep the cell plate at room temperature in the dark for 30 minutes. Read the chemiluminescence signal value with the Envision instrument.
X indicates the log value of compound concentration, Y indicates the inhibition rate (% inhibition), Top indicates the readout of the high-reading control well.

[3] = test system: melanin; experiment: Binding capacity of compounds to melanin; assay type: in vitro ADME, cuttlefish (Sepia officinalis); details: cuttlefish (Sepia officinalis), melanin suspension (1 mg/mL); 1 mg/mL melanin in PBS pH 7.4, 2 μM compound, 2 h at 37° C.; read-out: Fu % (percentage of free drug)
Procedure, shortened: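 Compound (2 μM final) incubated with washed Sepia melanin (1 mg/mL, PBS pH 7.4) 2 h at 37° C with shaking; PBS with 0.1% BSA served as blank. Supernatants quantified by LC-MS/MS; bound fraction Fb derived from melanin versus blank concentration.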

[4] = target: T2, VEGFR2 (Homo sapiens, UniProt P35968); experiment: Kinase inhibition, Mobility Shift Assay/IMAP, VEGFR2; assay type: biochemical; set-up: purchased Carna 08-191
Procedure, shortened: as §1
Target sequence in this assay (P35968 790-1356 limits assumed): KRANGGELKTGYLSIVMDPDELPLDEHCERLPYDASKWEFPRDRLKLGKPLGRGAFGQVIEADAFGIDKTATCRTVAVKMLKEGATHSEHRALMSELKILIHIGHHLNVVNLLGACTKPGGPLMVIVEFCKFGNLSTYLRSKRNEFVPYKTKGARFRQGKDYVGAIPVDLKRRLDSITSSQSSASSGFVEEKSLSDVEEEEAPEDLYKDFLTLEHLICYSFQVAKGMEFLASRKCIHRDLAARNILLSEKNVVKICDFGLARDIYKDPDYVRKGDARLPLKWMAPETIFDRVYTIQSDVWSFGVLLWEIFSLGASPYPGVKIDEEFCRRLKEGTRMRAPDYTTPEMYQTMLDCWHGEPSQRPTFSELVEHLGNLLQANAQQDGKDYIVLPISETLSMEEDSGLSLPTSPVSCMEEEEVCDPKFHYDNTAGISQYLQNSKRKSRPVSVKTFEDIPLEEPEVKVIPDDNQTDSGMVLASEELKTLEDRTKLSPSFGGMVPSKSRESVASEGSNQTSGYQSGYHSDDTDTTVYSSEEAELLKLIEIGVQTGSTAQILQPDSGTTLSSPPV

[5] = target: T2, VEGFR2; experiment: Inhibition of VEGF-induced VEGFR2 autophosphorylation (pVEGFR2) in HUVEC cells, ELISA; assay type: cell-based; set-up: endogenous in cells; host or cells: HUVEC; details: 50 ng/mL human VEGF, compound 1 h
From the text: Vascular endothelial growth factor receptor 2 (VEGFR2) is a primary receptor for VEGF-induced endothelial cell signaling. After ligand binding, VEGFR2 is autophosphorylated and activated. The main function of signaling from VEGFR2 is to induce vascularization during development and after tissue injury, and to bypass blocked blood vessels. Pathologically, VEGF and VEGFR2 are involved in tumor angiogenesis and vascular leakage. They are considered to be main participants in many different cancers and ocular diseases that accompany pathological neovascularization. This assay measured the ability of the compounds to inhibit VEGF-induced VEGFR2 autophosphorylation (pVEGFR2) in HUVEC cells by using ELISA.
Culture cells in a cell culture flask to reach a fusion degree of 60%-80% before cell inoculation. Dilute the cell suspension to […] with a pre-warmed complete medium. Add 80 μL of the cell suspension to all wells of a 96-well cell plate (Corning-3599); and incubate the plate overnight at 37° C. in the presence of 5% CO2. Dissolve the compound powder to 10 mM with DMSO and store it in a nitrogen cabinet. Compound dilution plate: Add a reference compound Ponatinib or a compound to be tested to a 96 V-well plate (Axygen-WIPP 2280) at concentrations achieved as follows: performing 3-fold gradient dilution starting from 5 mM (5 μL of 10 mM compound solution plus 5 μL of DMSO) for a total of 8 concentration points. […] Transfer 20 μL of the diluted compound from the intermediate plate to a cell plate. Then, incubate the cell plate for 1 h at 37° C. in the presence of 5% CO2. After the compound was treated for 1 h, add 25 μL of 250 ng/ml human VEGF at a final concentration of 50 ng/mL to a 96-well plate; and incubate the plate for 5 min at 37° C. in the presence of 5% CO2, centrifuge the plate for 10 min at 3,000 rpm, remove the medium and wash the cells once with 300 μL of pre-chilled DPBS per well. Then, centrifuge the plate for 10 min at 4,000 rpm, remove DPBS, and add 110 μL of pre-chilled 1× cell lysis buffer per well to the 96-well plate. Shake the plate for 40 min at 4° C. Then, freeze the plate in a refrigerator at −80° C. On the next day, remove the plate from the refrigerator at −80° C., thaw the plate, centrifuge the plate for 10 min at 3500 rpm, and add 100 μL of the supernatant per well to an ELISA plate. Seal the plate and incubate it for 2 h at 37° C. Wash the wells 4 times with 1× wash buffer. Add 100 μL of recombinant detection antibody per well. Seal the plate, incubate the plate for 1 h at 37° C., and repeat the step of plate washing. Add 100 μL of secondary antibody per well. Seal the plate, incubate the plate for 30 min at 37° C., and repeat the step of plate washing. Add 100 μL of TMB (protected from light) per well. Seal the plate, incubate the plate for 30 min at 37° C., and add 100 μL of the stop solution per well. Gently shake for 30 sec, measure the absorbance with a SpectraMax® 340 PC 384 Absorbance Microplate Reader within 30 min, and read an optical density value at 450 nm. Conduct data analysis using XL Fit software:
Conduct curve fitting using the 4 Parameter Logistic Model or Sigmoidal Dose-Response Model to obtain IC50 values.
X indicates the log value of compound concentration, Y indicates the inhibition rate (% inhibition), Top indicates the readout of the negative control wells, and Bottom indicates the readout of the positive control well.
Target sequence in this assay (P35968 20-1356): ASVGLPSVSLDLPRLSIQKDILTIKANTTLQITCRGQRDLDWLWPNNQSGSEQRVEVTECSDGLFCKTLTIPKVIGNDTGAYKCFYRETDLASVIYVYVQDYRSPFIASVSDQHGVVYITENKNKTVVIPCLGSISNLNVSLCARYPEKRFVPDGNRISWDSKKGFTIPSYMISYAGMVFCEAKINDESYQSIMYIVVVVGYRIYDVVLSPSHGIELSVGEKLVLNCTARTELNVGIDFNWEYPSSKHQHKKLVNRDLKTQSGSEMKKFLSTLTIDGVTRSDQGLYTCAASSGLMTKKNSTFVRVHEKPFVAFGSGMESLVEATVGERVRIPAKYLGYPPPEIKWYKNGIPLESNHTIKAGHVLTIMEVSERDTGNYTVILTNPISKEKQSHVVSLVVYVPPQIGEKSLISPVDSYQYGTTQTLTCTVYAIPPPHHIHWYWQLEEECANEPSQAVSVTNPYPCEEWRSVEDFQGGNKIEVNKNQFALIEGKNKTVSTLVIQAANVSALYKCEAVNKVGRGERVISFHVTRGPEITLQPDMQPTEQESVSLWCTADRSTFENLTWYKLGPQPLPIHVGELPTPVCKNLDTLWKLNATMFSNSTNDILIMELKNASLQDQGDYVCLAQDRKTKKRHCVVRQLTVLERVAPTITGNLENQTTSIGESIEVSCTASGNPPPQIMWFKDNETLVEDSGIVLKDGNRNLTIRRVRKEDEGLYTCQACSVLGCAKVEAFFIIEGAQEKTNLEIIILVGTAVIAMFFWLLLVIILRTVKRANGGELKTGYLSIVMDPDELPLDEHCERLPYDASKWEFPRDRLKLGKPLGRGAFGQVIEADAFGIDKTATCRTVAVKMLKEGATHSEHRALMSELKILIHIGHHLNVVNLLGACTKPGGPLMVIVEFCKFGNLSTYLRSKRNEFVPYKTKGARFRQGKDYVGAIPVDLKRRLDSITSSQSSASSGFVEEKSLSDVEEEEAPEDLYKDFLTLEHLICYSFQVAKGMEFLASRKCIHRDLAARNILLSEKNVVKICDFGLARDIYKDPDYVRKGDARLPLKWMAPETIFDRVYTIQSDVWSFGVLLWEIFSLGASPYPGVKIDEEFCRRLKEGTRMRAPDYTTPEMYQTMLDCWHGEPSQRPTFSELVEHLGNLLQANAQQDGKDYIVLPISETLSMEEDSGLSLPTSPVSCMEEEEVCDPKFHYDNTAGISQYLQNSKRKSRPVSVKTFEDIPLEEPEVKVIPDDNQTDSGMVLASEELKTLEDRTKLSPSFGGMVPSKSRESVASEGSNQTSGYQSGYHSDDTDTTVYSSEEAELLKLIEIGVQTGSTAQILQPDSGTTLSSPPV

[6] = Solubility test in buffer, LC-MS; assay type: physicochemical; details: aqueous buffer, thermodynamic from solid, room temperature, shaking 8 h, pH not given (method: pH 2.0, 6.5, 7.4)
Procedure, shortened: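 Compound at 2 mg/mL in buffers of pH 2.0, 6.5 and 7.4, sonicated, shaken 8 h at room temperature, then centrifuged at 13,000 rpm. Supernatant quantified by LC-MS against a 3–5 point calibration.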

[7] = target: T3, TIE2 (Homo sapiens, UniProt Q02763); experiment: Kinase inhibition, Mobility Shift Assay/IMAP, TIE2; assay type: biochemical
T3 construct: purchased BPS 40270
Procedure, shortened: as §1

[8] = test system: male black-banded Dutch rabbits; details: eye drops, male black-banded Dutch rabbits, third day after eye drop administration
From the text: The binding of the compound to melanin may affect ocular pharmacokinetics after topical administration. […] In such cases, the compound may bind to melanin tissues in the posterior segment (retinal pigment epithelium, choroid) or anterior segment (ciliary body, iris) of the eye.

[9] = rabbit
Protocol: We used male Dutch black-banded rabbits to assess the MTD of the compounds administered in eye drops.
Male Dutch black-banded rabbits (weighing 1.5 kg to 2.5 kg) were purchased from an eligible supplier.
A total of 8 rabbits animals with good health conditions and normal eyes (without abnormalities such as trauma, congestion, redness and swelling) were randomly divided into 4 groups. […] Eye drop administration was conducted for two consecutive days, 3 times a day, at an interval of 6±0.5 hours. Before administration, the status of the dosing preparation was inspected, and its homogeneity was ensured by means of vortexing, stirring, or shaking. Before each administration, the states of rabbit eyes were observed, including but not limited to eye color, substances around the eyes, conjunctival swelling, eye exudate, discharge, cornea, pupillary reflex, etc. Subsequently, the toxicity risk assessment for six consecutive days of eye drop administration was further conducted. A total of 8 rabbits were randomly divided into 2 groups. […] Eye drop administration was conducted 3 times a day, at an interval of 6±0.5 hours.

[10] = target: T4, VEGFR1 (Homo sapiens, UniProt P17948); experiment: Kinase inhibition, Mobility Shift Assay/IMAP, VEGFR1; assay type: biochemical
T4 construct: purchased Invitrogen PR6731B
Procedure, shortened: as §1

[11] = target: T5, VEGFR3 (Homo sapiens, UniProt P35916); experiment: Kinase inhibition, Mobility Shift Assay/IMAP, VEGFR3; assay type: biochemical
T5 construct: purchased Invitrogen PV4129
Procedure, shortened: as §1

T1 sequence (P00533 669-1210 limits assumed): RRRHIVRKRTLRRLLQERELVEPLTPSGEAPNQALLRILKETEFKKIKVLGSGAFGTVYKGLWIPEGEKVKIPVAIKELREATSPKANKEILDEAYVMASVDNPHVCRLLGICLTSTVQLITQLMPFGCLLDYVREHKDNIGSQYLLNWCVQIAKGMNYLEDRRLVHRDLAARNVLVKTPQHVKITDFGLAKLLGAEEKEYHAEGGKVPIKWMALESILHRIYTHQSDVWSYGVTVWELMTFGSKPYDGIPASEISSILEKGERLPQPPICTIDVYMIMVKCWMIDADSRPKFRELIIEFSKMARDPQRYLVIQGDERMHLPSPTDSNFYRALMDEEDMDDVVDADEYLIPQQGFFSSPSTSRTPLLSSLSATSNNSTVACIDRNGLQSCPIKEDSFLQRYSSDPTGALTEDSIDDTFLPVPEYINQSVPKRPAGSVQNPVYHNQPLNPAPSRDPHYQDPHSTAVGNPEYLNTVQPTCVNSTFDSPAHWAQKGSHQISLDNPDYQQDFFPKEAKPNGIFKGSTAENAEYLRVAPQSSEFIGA
T5 sequence (P35916 25-1363): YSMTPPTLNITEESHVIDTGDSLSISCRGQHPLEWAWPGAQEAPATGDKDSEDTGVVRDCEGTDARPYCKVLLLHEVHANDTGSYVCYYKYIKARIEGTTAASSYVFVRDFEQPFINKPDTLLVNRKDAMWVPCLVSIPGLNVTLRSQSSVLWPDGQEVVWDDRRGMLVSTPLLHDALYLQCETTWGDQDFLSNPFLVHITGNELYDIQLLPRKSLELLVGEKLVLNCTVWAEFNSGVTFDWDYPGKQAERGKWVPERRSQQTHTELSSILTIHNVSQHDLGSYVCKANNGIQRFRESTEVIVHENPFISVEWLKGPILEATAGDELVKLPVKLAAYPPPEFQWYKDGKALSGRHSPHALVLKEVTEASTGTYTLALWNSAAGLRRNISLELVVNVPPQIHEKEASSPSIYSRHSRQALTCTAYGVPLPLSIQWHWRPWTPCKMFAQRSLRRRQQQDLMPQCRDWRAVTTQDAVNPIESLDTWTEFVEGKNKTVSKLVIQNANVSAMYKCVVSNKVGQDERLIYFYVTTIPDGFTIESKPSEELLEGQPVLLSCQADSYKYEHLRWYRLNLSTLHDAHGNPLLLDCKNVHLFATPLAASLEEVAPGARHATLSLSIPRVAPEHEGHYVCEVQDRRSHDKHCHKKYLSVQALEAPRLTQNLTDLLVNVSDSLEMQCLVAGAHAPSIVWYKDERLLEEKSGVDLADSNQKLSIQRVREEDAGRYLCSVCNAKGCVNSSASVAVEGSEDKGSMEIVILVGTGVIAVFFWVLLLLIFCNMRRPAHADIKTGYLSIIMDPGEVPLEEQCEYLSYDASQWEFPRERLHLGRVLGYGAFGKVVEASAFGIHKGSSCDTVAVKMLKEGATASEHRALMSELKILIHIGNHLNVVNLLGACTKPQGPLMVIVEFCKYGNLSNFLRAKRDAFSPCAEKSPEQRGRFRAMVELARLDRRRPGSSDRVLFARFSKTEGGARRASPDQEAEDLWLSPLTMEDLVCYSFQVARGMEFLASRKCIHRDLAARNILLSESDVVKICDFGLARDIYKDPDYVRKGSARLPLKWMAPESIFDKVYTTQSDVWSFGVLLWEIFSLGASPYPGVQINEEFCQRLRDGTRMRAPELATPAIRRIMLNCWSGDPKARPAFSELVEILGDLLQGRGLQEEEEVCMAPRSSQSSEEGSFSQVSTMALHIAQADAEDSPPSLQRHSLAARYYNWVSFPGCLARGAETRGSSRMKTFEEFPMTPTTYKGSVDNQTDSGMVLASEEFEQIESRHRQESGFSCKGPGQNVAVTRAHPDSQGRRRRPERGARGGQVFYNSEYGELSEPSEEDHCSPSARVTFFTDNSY
T4 sequence (P17948 27-1338): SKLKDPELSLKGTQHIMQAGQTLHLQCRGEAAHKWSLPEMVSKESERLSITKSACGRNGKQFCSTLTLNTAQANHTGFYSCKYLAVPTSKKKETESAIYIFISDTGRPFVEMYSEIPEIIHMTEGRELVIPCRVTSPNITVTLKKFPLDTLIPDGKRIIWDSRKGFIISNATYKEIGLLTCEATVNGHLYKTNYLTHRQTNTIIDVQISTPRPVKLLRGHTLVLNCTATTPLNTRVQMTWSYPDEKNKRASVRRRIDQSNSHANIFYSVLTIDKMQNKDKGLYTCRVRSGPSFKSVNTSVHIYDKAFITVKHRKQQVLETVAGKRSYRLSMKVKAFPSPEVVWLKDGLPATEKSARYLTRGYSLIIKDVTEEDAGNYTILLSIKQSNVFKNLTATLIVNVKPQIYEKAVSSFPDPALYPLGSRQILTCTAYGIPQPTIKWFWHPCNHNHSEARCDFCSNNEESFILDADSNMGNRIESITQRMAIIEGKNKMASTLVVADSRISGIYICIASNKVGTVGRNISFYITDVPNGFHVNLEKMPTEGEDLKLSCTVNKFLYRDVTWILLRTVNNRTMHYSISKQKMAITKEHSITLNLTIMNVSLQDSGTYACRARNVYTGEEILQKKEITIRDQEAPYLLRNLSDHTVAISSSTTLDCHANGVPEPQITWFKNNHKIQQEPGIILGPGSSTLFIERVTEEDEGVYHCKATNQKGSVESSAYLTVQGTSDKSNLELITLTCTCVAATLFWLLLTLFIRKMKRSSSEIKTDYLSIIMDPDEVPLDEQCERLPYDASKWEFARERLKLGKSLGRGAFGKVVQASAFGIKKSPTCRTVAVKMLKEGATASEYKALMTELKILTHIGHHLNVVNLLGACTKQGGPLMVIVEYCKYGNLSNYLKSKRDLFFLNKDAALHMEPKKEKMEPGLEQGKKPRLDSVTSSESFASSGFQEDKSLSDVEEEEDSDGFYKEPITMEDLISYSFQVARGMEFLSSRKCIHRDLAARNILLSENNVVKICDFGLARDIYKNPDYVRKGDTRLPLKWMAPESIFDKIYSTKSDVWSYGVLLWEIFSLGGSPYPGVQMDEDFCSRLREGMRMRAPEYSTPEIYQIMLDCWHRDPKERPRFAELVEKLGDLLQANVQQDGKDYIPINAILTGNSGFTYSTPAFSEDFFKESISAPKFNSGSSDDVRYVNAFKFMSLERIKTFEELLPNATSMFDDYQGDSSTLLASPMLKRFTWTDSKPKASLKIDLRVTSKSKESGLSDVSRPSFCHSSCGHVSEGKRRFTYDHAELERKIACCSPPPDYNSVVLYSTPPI

Row | Structure (SMILES) | IC50 [1] [nM] | IC50 [2] [nM] | fraction unbound at 2 h, 2 μM [3] | IC50 [4] [nM] | IC50 [5] [nM] | solubility at 8 h [6] [µg/mL] | IC50 [7] [nM] | maximum tolerated dose (MTD) [8] [μg/eye] | MTD on the third day of eye drop administration ([9]; eye drops 3 times a day, both eyes) [μg/eye] | MTD on the eighth day of eye drop administration ([9]; six consecutive days of eye drops, 3 times a day) [μg/eye] | IC50 [10] [nM] | IC50 [11] [nM]
1 | CN1CC[C@H](CCNC(=O)Nc2snc(OCc3cc4c(cc3F)CCO4)c2C(N)=O)C1 [Compound T095, 3-[(5-fluoro-2,3-dihydrobenzofuran-6-yl)methoxy]-5-[2-[(3S)-1-methylpyrrolidin-3-yl]ethylcarbamoylamino] isothiazole-4-carboxamide] | 11400 | 55.8 | 0.0469 | 4.7 | 93 |  |  |  |  |  |  | 
2 | COc1ccc(F)c(COc2nsc(NC(=O)NCCCCN3CCCCC3)c2C(N)=O)c1F [Compound T131, 3-[(2,6-difluoro-3-methoxy-phenyl)methoxy]-5-[4-(1-piperidyl)butylcarbamoylamino]isothiazole-4-carboxamide] | 15000 |  | 0.0629 | 17.4 | 19 | 278 (≈ 559 µM) |  |  |  |  |  | 
3 | COc1ccc(F)c(COc2nsc(NC(=O)NCCCCN3CCCC3)c2C(N)=O)c1F [Compound T093, 3-((2,6-difluoro-3-methoxybenzyl)oxy)-5-(3-(4-(pyrrolidin-1-yl)butyl)ureido)isothiazole-4-carboxamide] | 14600 | 55.8 | 0.0531 | 12.4 |  |  | 181 | ≥ 250 | ≥ 250 | ≥ 250 |  | 
4 | CN1CCN(CCNC(=O)Nc2snc(OCc3ccc(F)c(C(=O)NC4CC4)c3)c2C(N)=O)CC1 [Compound T149, 3-[[3-(cyclopropylcarbamoyl)-4-fluoro-phenyl]methoxy]-5-[2-(4-methylpiperazin-1-yl)ethylcarbamoylamino]isothiazole-4-carboxamide] | 12000 |  |  | 2.35 | 52.2 | 1580 (≈ 3040 µM) |  |  |  |  | 2.39 | 10
5 | COc1ccc(F)c(COc2nsc(NC(=O)NCCCCN3CC[C@@H](O)C3)c2C(N)=O)c1F [Compound T114, 3-[(2,6-difluoro-3-methoxy-phenyl)methoxy]-5-[4-[(3R)-3-hydroxypyrrolidin-1-yl]butylcarbamoylamino]isothiazole-4-carboxamide] | 13400 | 19 | 0.0333 | 12.8 | 32.5 |  |  |  |  |  |  | 
6 | CN1CCN(CCCNC(=O)Nc2snc(OCc3ccc(F)c(C(=O)NC4CC4)c3)c2C(N)=O)CC1 [Compound T078, 3-[[3-(cyclopropylcarbamoyl)-4-fluoro-phenyl]methoxy]-5-[3-(4-methylpiperazin-1-yl)propylcarbamoylamino]isothiazole-4-carboxamide] | 16100 |  | 0.0241 | 2.09 | 56.5 | 800 (≈ 1500 µM) | 4060 |  |  |  | 5.72 | 16.8
7 | NC(=O)c1c(OCc2ccc3c(c2)OCC3)nsc1NC(=O)NCCCCN1CCCC1 [Compound T042, 3-((2,3-dihydrobenzofuran-6-yl)methoxy)-5-(3-(4-(pyrrolidin-1-yl)butyl)ureido)isothiazole-4-carboxamide] | 33000 | 79.9 |  | 14.2 | 22 | 820 (≈ 1780 µM) | 448 |  |  |  | 34.3 | 42
8 | NC(=O)c1c(OCc2ccc(F)c(C(=O)NC3CC3)c2)nsc1NC(=O)NCCCCN1CCCC1 [Compound T151, 3-[[3-(cyclopropylcarbamoyl)-4-fluoro-phenyl]methoxy]-5-(4-pyrrolidin-1-ylbutylcarbamoylamino)isothiazole-4-carboxamide] | 10700 |  |  | 1.75 | 68.4 | 1340 (≈ 2590 µM) |  |  |  |  | 1.53 | 3.91
9 | COc1ccc(F)c(COc2nsc(NC(=O)NCCCCN3CC[C@H](O)C3)c2C(N)=O)c1F [Compound T104, 3-[(2,6-difluoro-3-methoxy-phenyl)methoxy]-5-[4-[(3S)-3-hydroxypyrrolidin-1-yl]butylcarbamoylamino] isothiazole-4-carboxamide] | 18900 | 35.5 | 0.0322 | 16.4 | 34.5 |  |  |  |  |  |  | 
10 | COc1cc(OC)c(F)c(COc2nsc(NC(=O)NCCC3CCN(CCF)CC3)c2C(N)=O)c1F [Compound T126, 3-[(2,6-difluoro-3,5-dimethoxy-phenyl)methoxy]-5-[2-[1-(2-fluoroethyl)-4-piperidyl]ethylcarbamoylamino]isothiazole-4-carboxamide] | > 60000 | 22 | 0.0495 | 2.7 | 27 |  |  |  |  |  |  | 
